Test results published in publication PMC10301432, “Antiplasmodial, Trypanocidal, and Genotoxicity In Vitro Assessment of New Hybrid α,α-Difluorophenylacetamide-statin Derivatives” (Pharmaceuticals, 2023).
Structures can show the parent of a compound that is named as a salt. Where two headings read alike, the source gives them in different places.

Tests used:
[1] = tested on: P. falciparum parasites (W2 clone) chloroquine-resistant; experiment: Antiplasmodial activity, anti-HRPII assay; assay type: cell-based, Plasmodium falciparum; settings: for SI: LC50 (HepG2)/EC50 (P. falciparum); for EC50: Plasmodium falciparum, W2, 24 h; for Antiplasmodial Activity: summarized outcome
Text: P. falciparum W2 clone was maintained in continuous culture as previously described. […] Prior to testing, the ring-stage parasites were synchronized using sorbitol.
The test quantification was read at 450 nm on a spectrophotometer (SpectraMax340PC384, Molecular Devices Sunnyvale, CA, USA), and the drug activity was expressed as the half-maximal inhibitory concentration (EC50) compared to the drug-free controls using the curve-fitting software Origin 8.0 (OriginLab Corporation, Northampton, MA, USA).

in vitro [2] = assay type: cell-based; settings: human
Experimental: Human hepatocellular carcinoma (HepG2) and Chinese Hamster Ovary (CHO-K1) cells obtained from the American Type Culture Collection (Manassas, VA, USA) were cultured in Eagle’s medium (MEM, Gibco®, Waltham, MA, USA) containing 10% fetal bovine serum (FBS) plus 100 µg/mL streptomycin and 100 µg/mL penicillin at 37 °C in a 5% CO2 atmosphere. Logarithmic-phase cells were used in all the experiments.
Fresh HepG2 and CHO-K1 cells were seeded at a density of 1 × 10^4/well. […] Briefly, after treatment, the culture medium was replaced by 90 μL fresh culture medium and 10 μL WST-1 reagent and incubated at 37 °C and 5% CO2 for 3 h. The absorbance was then measured at 440 nm according to the kit protocol.

[3] = tested on: trypomastigote forms of T. cruzi (Y strain); experiment: Trypanocidal activity on bloodstream trypomastigotes; assay type: cell-based, Trypanosoma cruzi; settings: for EC50: Trypanosoma cruzi, bloodstream trypomastigotes, Y strain, 24 h at 37 °C
Experimental: (§1) Bloodstream trypomastigote forms (BT) of the Y strain were obtained from infected albino Swiss mice at the peak of parasitemia, isolated by differential centrifugation and resuspended in DMEM to a parasite concentration of 10^7 cells/mL in the presence of 10% of mouse blood. This suspension (100 µL) was added in the same volume of 13 (a–d) and 14 (a–d) previously prepared at twice the desired final concentrations.

in vitro [4] = assay type: cell-based; settings: mouse
Experimental: Primary cultures of cardiac cells (CC) were obtained as reported in [50]. The cultures were sustained in Dulbecco’s modified Eagle’s medium (DMEM) supplemented with 10% horse serum, 5% fetal bovine serum (FBS), 2.5 mM CaCl2, 1 mM L-glutamine, and 2% chicken embryo extract. Cell cultures were maintained at 37 °C in an atmosphere of 5% CO2, and assays were run at least three times in triplicate.
(§2) Cardiac cell cultures were incubated for 24 h at 37 °C with different concentrations of the compounds (up to 200 µM) diluted in DMEM (without phenol red). Their morphology and spontaneous contractibility were evaluated by light microscopy and then the cellular viability was determined by the PrestoBlue® assay. For this colorimetric bioassay, PrestoBlue® (Invitrogen, Waltham, MA, USA) was added to each well (using a 10:1 medium/dye), the plate was further incubated for 24 h followed by optical density (OD) measurement performed at 570 and 600 nm, as recommended by the manufacturer.

T. cruzi = experiment: Trypanocidal in vitro phenotypic screening, overall outcome; assay type: cell-based, Trypanosoma cruzi; settings: summarized outcome
Experimental: as §1
(§3) Tissue culture-derived trypomastigotes (Tulahuen strain expressing the E. coli β-galactosidase gene) were maintained in L929 cell lines and collected from the supernatant after 96 h of parasite infection, following previously established protocols. Briefly, after 24 h of L929 platting (4 × 10^3 cells/well), the cultures were incubated with trypomastigotes (10:1 parasite/host cell ratio) for 2 h at 37 °C. Then, the cell cultures were rinsed to remove non-internalized parasites and then further incubated for 24 h at 37 °C. Then the infected cultures were followed using two sequential protocols. […] After this period, 50 µL chlorophenol red glycoside (500 µM) in 0.5% Nonidet P40 was added to each well and the plate was incubated for more than 18 h at 37 °C, after which the absorbance was measured at 570 nm. Then, the compounds were next evaluated using dose–response assays in which Tulahuen-infected-L929 cells were exposed to different non-toxic concentrations of each compound (0–50 µM) and then after 96 h of incubation the same procedure was conducted as above reported. Controls with untreated and Bz-treated cells are run in parallel. The results were expressed as the percent difference in the reduction between treated and untreated cells.

[5] = tested on: intracellular forms of T. cruzi (Tulahuen strain transfected with β-galactosidase); experiment: Activity against intracellular T. cruzi in L929 cells; assay type: cell-based, Trypanosoma cruzi; settings: for EC50: Trypanosoma cruzi, L929, intracellular forms, Tulahuen strain, read-out: EC50; for EC50 / 10µM (% of Parasite Lysis): 96 h; for 10µM (% of Parasite Lysis): fixed concentration 10 µM
Experimental: as §3, with “Then, the compounds were next evaluated using dose–response assays in which Tulahuen-infected-L929 cells were exposed to different non-toxic concentrations of each compound (0–50 µM) and then after 96 h of incubation the same procedure was conducted as above reported.” left out

in vitro [6] = assay type: cell-based; settings: mouse; remark: listed apart in the source
Experimental: as §2

[7] = tested on: intracellular forms of T. cruzi (Tulahuen strain transfected with β-galactosidase); set-up: method as in PMID 24590476; settings: read-out: EC90 value of Bz against intracellular forms of T. cruzi; cited from earlier work
HepG2 cells = experiment: In vitro micronuclei assay, HepG2; assay type: cell-based, human; settings: human, 3 h
Experimental: Fresh HepG2 and CHO-K1 cells were seeded at the density of 1 × 10^5 cells/mL into 24-well plates (1 mL/per well). The compounds 13 (a–d) were then added to the medium to final concentrations of 500, 1000 and 2000 µM and incubation continued for 3 h or 24 h. DMSO 10% was used as the negative control, and, BaP (80 µM) for HepG2 and MMC (5 µM) for CHO-K1 were the positive controls. After exposure to the compounds, the cells were incubated for more than 24 h under growth conditions before quantification of the micronuclei and cytotoxicity. The cytogenetic studies were carried out in triplicate as described previously (see [51]). In order to determine the mitotic index and the number of cells with micronuclei, the medium was replaced by a cold methanol-glacial acetic acid (3:1) fixative for 30 min, and the cells then rinsed with distilled water for 2 min and air dried. The fixed cells were stained with 4,6-diamidino-2-phenylindole (DAPI) ([…]) dissolved in McIlvaine buffer (0.1 M citric acid plus 0.2 M Na2HPO4, pH 7.0) for 60 min, washed with McIlvaine buffer for 5 min, briefly rinsed with distilled water and mounted in glycerol. To determine the mitotic index and the number of cells with micronuclei, 1000 cells per well (3000 cells per concentration) were analyzed under a fluorescence microscope. The results for micronuclei were presented as the percentage of cells containing micronuclei in the 3000 cells/concentration group analyzed. Cells that glowed brightly and had homogenous nuclei were considered as having normal phenotypic morphology. Apoptotic nuclei were identified by the condensed chromatin at the periphery of the nuclear membrane or by fragmented nuclear body morphology. Necrotic cells presented chromatin forms with irregularly shaped aggregates, a pyknotic nucleus (shrunken and darkly stained) and cell membrane disruption, with cellular debris spilled into the extracellular milieu. Once again, 3000 cells were counted and the percentage of viable cells was evaluated, discounting apoptotic and necrotic cells. Statistical differences between the groups were analyzed by two-way ANOVA (p < 0.01) and Tukey’s post hoc test.

[8] = P. falciparum W2 clone, 24 h at 37 °C, read-out: EC50

For `CC(=O)Nc1ccccc1C(F)(F)C(=O)NCC[C@@H](O)C[C@@H](O)CC(=O)O` [Compound 14a, Sodium (3R,5R)-7-(2-(2-acetamido-phenyl)-2,2-difluoroacetamide)-3,5-dihydroxyheptanoate salt], the SI [1] was “Inactive”, the EC50 [1, 8] was greater than 122 µM and the “Antiplasmodial Activity” value [1] was “No”. The CC50 at 24 h (in vitro [2]) was greater than 488 µM, the EC50 [3] was greater than 500 µM and the CC50 at 24 h (in vitro [4]) was greater than 500 µM. The “Trypanocidal Activity” value (T. cruzi) was “No”.

`O=C(Cn1ccnc1[N+](=O)[O-])NCc1ccccc1` [Benznidazole, benznidazole, reference compound] gave an SI ([3]; LC50 (cardiac cells)/EC50 (trypomastigotes)) greater than 77, an EC50 [3] of 13 ± 2 µM and a CC50 at 24 h (in vitro [4]) greater than 1000 µM. The SI ([5]; LC50 (L929)/EC50 (intracellular forms)) was 92.4, the EC50 [5] was 1.83 ± 0.73 µM and the “10µM (% of Parasite Lysis)” value [5] was 87.84 ± 7.08%. For the same molecule, the CC50 at 96 h (in vitro [6]) was 169 ± 27.2 µM and the EC90 [7] was 10 µM.

In the case of `CC(=O)Nc1ccc(Br)cc1C(F)(F)C(=O)NCC[C@@H](O)C[C@@H](O)CC(=O)O` [Compound 14d, Sodium (3R,5R)-7-(2-(2-acetamido-5-bromophenyl)-2,2-difluoroacetamide)-3,5-dihydroxyheptanoate salt], the SI [1] is reported as “Inactive”, the EC50 [1, 8] is reported as greater than 102 µM and the “Antiplasmodial Activity” value [1] is reported as “No”. It also gave a CC50 at 24 h (in vitro [2]) greater than 409 µM, an EC50 [3] greater than 500 µM and a CC50 at 24 h (in vitro [4]) greater than 500 µM. For the same molecule, the “Trypanocidal Activity” value (T. cruzi) was “No”.

`CC(C)c1c(C(=O)Nc2ccccc2)c(-c2ccccc2)c(-c2ccc(F)cc2)n1CC[C@@H](O)C[C@@H](O)CC(=O)O` [AVA, atorvastatin, reference compound] showed an EC50 [1, 8] of 10.3 ± 1.2 µM, an EC50 [3] of 7.07 ± 1.78 µM and an EC50 [5] of 45.3 ± 3.06 µM. For the same molecule, the “10µM (% of Parasite Lysis)” value [5] was 31.73 ± 5.80% and the “cytotoxicity (survival rate) in micronuclei assay” value (HepG2 cells) was “significant cytotoxic effects upon 1000 µM”.

Molecule `CCN(CC)CCCC(C)Nc1ccnc2cc(Cl)ccc12` (stereo not drawn) [Chloroquine, chloroquine, reference compound] has an EC50 [1] of 0.59 ± 0.03 µM.

With `CC(=O)Nc1ccc(C)cc1C(F)(F)C(=O)NCC[C@@H](O)C[C@@H](O)CC(=O)O` [Compound 14b, Sodium (3R,5R)-7-(2-(2-acetamido-5-methylphenyl)-2,2-difluoroacetamide)-3,5-dihydroxyheptanoate salt] the SI [1] was “Inactive”, the EC50 [1, 8] was greater than 118 µM and the “Antiplasmodial Activity” value [1] was “No”. The CC50 at 24 h (in vitro [2]) was greater than 472 µM, the EC50 [3] was greater than 500 µM and the CC50 at 24 h (in vitro [4]) was greater than 500 µM. The “Trypanocidal Activity” value (T. cruzi) was “No”.

For `CC(=O)Nc1ccc(Cl)cc1C(F)(F)C(=O)NCC[C@@H](O)C[C@@H](O)CC(=O)O` [Compound 14c, Sodium (3R,5R)-7-(2-(2-acetamido-5-chlorophenyl)-2,2-difluoroacetamide)-3,5-dihydroxyheptanoate salt], the SI [1] was “Inactive”, the EC50 [1, 8] was greater than 112 µM and the “Antiplasmodial Activity” value [1] was “No”. For the same molecule, the CC50 at 24 h (in vitro [2]) was greater than 450 µM, the EC50 [3] was greater than 500 µM and the CC50 at 24 h (in vitro [4]) was greater than 500 µM. For the same molecule, the “Trypanocidal Activity” value (T. cruzi) was “No”.
